# Test results as given in paper PMC7731314, “Tropinone-Derived Alkaloids as Potent Anticancer Agents: Synthesis, Tyrosinase Inhibition, Mechanism of Action, DFT Calculation, and Molecular Docking Studies” (International Journal of Molecular Sciences, 2020).
# Where two headings read alike, the source gives them in different places.
# What was measured:
# [1] = test system: human multiple myeloma (RPMI 8226) cell line; assay: MTT cell proliferation assay, RPMI 8226; format: cell-based; conditions: antiproliferative, 96 h, read-out: IC50 ± SD RPMI 8226
# Procedure: (§1) The influence of the tested compounds on the proliferation of RPMI 8226 and A549 cells was estimated with the MTT assay as described previously. Briefly, 1 × 10^4 cells/mL (RPMI 8226) or 0.2 × 10^4 (A549) cells per well were seeded into 96-well plates and cultured (in growth medium containing 10% FBS) with different concentrations of each compound ranging from 3.125 to 100 μM. The control cells were treated with the vehicle DMSO (0.1%).
# [2] = test system: human lung carcinoma (A549) cell line; assay: MTT cell proliferation assay, A549; format: cell-based; conditions: antiproliferative, 96 h, read-out: IC50 ± SD A549
# Procedure: as §1
# mushroom tyrosinase = mushroom tyrosinase (Agaricus bisporus, UniProt C7FF04); assay: Kinetic analysis of the inhibition of tyrosinase (Lineweaver-Burk); format: biochemical; conditions: tyrosinase-catalyzed oxidation of L-DOPA
# Chain of mushroom tyrosinase (C7FF04 1-392): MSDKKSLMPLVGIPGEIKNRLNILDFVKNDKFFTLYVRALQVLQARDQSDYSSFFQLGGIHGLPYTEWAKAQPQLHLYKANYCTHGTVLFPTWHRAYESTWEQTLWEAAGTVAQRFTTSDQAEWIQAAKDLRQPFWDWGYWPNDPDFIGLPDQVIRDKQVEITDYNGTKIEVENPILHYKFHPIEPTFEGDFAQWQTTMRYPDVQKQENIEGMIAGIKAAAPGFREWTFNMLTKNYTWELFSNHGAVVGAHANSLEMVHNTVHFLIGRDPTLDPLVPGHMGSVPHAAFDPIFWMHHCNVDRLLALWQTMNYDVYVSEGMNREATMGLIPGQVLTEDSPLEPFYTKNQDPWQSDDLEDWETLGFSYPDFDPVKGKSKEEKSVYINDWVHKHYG
# Procedure: To understand the mechanism of mushroom tyrosinase inhibition by new compounds 3a–3h, enzyme inhibition kinetic studies were performed. The mechanism of tyrosinase inhibition was determined using Lineweaver–Burk plot, which is a useful graphical method for analysis of the Michaelis–Menten equations used to determine the inhibition constant […].
# A series of experiments were performed to determine the inhibition kinetics of compounds by following the already reported method. The inhibitor concentrations for compounds were 50 and 100 µM. Substrate L-DOPA concentration was between 100 and 250 µM in all kinetic studies. Maximal initial velocity was determined from the initial linear portion of absorbance up to ten minutes after addition of enzyme. The inhibition type of the enzyme, Michaelis constant (KM) and maximal velocity (Vmax) were determined by Lineweaver–Burk plots of inverse of velocities (1/V) versus inverse of substrate concentration 1/[L-DOPA] mM^−1.
# A549 cells = format: cell-based, human
# Procedure: (§2) The RPMI 8226 or A549 cells were seeded in 6-well plates in medium containing 10% FBS without or with compound 3a (2.5, 5, 10, 20, or 40 µM). After 24-h and 48-h treatment, the cell cycle analysis was performed by determination of the DNA contents on the basis of PI staining as described previously. Briefly, the cells were harvested, washed with PBS, and fixed overnight with 80% ethanol at −20 °C. After that, the cells were washed with PBS and stained with PI using PI/RNase Staining Buffer (BD Biosciences, BD Pharmingen™, USA) for 30 min in darkness at RT. Next, the stained cells were analyzed using FACS Calibur. The intensity of PI fluorescence of individual nuclei was determined and at least 10 000 events were measured within an acquisition rate >60 events/s. The FACS data were analyzed using Cell Quest Pro Version 6.0 (BD Biosciences, San Jose, CA, USA). for the Macintosh operating system. The data were analyzed to determine the percentage of cells at the sub-G1 phase (apoptotic cells) and each phase of the cell cycle (G1, S, and G2/M).
# RPMI 8226 cells = format: cell-based, human
# Procedure: as §2
compound,measurement,setting,value
"CN1C2CCC1CC(=NNc1nc(-c3ccc(I)cc3)cs1)C2 [Compound 3a, 4-(4-Iodophenyl)-2-(2-(8-methyl-8-azabicyclo[3.2.1]octan-3-ylidene)hydrazinyl)thiazole]",IC50,[1],9.32 ± 0.71 µM
same,IC50,[2],13.8 ± 1.9 µM
same,Inhibitory Mechanism,mushroom tyrosinase,mixed
same,Cell cycle distribution G0/G1,"A549 cells; A549, 2.5 µM, 24 h",64.49±1.89 % of cells
same,Cell cycle distribution G2/M,"A549 cells; A549, 2.5 µM, 24 h",14.68±2.11 % of cells
same,Cell cycle distribution S,"A549 cells; A549, 2.5 µM, 24 h",12.39±2.34 % of cells
same,Cell cycle distribution sub-G1,"A549 cells; A549, 2.5 µM, 24 h",8.81±3.73 % of cells
same,Cell cycle distribution G0/G1,"A549 cells; A549, 2.5 µM, 48 h",73.22±1.97 % of cells
same,Cell cycle distribution G2/M,"A549 cells; A549, 2.5 µM, 48 h",8.91±2.22 % of cells
same,Cell cycle distribution S,"A549 cells; A549, 2.5 µM, 48 h",6.07±1.54 % of cells
same,Cell cycle distribution sub-G1,"A549 cells; A549, 2.5 µM, 48 h",11.98±3.62 % of cells
same,Cell cycle distribution G0/G1,"A549 cells; A549, 5 µM, 24 h",65.90±2.36 % of cells
same,Cell cycle distribution G2/M,"A549 cells; A549, 5 µM, 24 h",13.62±2.25 % of cells
same,Cell cycle distribution S,"A549 cells; A549, 5 µM, 24 h",12.18±2.45 % of cells
same,Cell cycle distribution sub-G1,"A549 cells; A549, 5 µM, 24 h",8.94±3.39 % of cells
same,Cell cycle distribution G0/G1,"A549 cells; A549, 5 µM, 48 h",68.55±8.03 % of cells
same,Cell cycle distribution G2/M,"A549 cells; A549, 5 µM, 48 h",9.05±1.72 % of cells
same,Cell cycle distribution S,"A549 cells; A549, 5 µM, 48 h",6.81±2.66 % of cells
same,Cell cycle distribution sub-G1,"A549 cells; A549, 5 µM, 48 h",15.74±6.03 % of cells
same,Cell cycle distribution G0/G1,"A549 cells; A549, 10 µM, 24 h",66.51±4.46 % of cells
same,Cell cycle distribution G2/M,"A549 cells; A549, 10 µM, 24 h",11.43±2.88 % of cells
same,Cell cycle distribution S,"A549 cells; A549, 10 µM, 24 h",9.82±2.73 % of cells
same,Cell cycle distribution sub-G1,"A549 cells; A549, 10 µM, 24 h",13.23±7.01 % of cells
same,Cell cycle distribution G0/G1,"A549 cells; A549, 10 µM, 48 h",68.54±6.87 % of cells
same,Cell cycle distribution G2/M,"A549 cells; A549, 10 µM, 48 h",8.44±1.47 % of cells
same,Cell cycle distribution S,"A549 cells; A549, 10 µM, 48 h",7.07±2.63 % of cells
same,Cell cycle distribution sub-G1,"A549 cells; A549, 10 µM, 48 h",16.15±6.33 % of cells
same,Cell cycle distribution G0/G1,"A549 cells; A549, 20 µM, 24 h",66.45±9.20 % of cells
same,Cell cycle distribution G2/M,"A549 cells; A549, 20 µM, 24 h",7.16±2.15 % of cells
same,Cell cycle distribution S,"A549 cells; A549, 20 µM, 24 h",5.23±2.38 % of cells
same,Cell cycle distribution sub-G1,"A549 cells; A549, 20 µM, 24 h",22.36±12.24 % of cells
same,Cell cycle distribution G0/G1,"A549 cells; A549, 20 µM, 48 h",63.07±6.59 % of cells
same,Cell cycle distribution G2/M,"A549 cells; A549, 20 µM, 48 h",5.19±0.93 % of cells
same,Cell cycle distribution S,"A549 cells; A549, 20 µM, 48 h",4.61±1.21 % of cells
same,Cell cycle distribution sub-G1,"A549 cells; A549, 20 µM, 48 h",27.32±6.78 % of cells
same,Cell cycle distribution G0/G1,"A549 cells; A549, 40 µM, 24 h",41.03±2.93 % of cells
same,Cell cycle distribution G2/M,"A549 cells; A549, 40 µM, 24 h",12.87±5.29 % of cells
same,Cell cycle distribution S,"A549 cells; A549, 40 µM, 24 h",11.34±0.58 % of cells
same,Cell cycle distribution sub-G1,"A549 cells; A549, 40 µM, 24 h",35.46±9.33 % of cells
same,Cell cycle distribution G0/G1,"A549 cells; A549, 40 µM, 48 h",16.49±3.46 % of cells
same,Cell cycle distribution G2/M,"A549 cells; A549, 40 µM, 48 h",2.19±0.38 % of cells
same,Cell cycle distribution S,"A549 cells; A549, 40 µM, 48 h",6.05±0.87 % of cells
same,Cell cycle distribution sub-G1,"A549 cells; A549, 40 µM, 48 h",75.27±4.12 % of cells
same,Cell cycle distribution G0/G1,"RPMI 8226 cells; RPMI 8226, 2.5 µM, 24 h",41.14±1.03 % of cells
same,Cell cycle distribution G2,"RPMI 8226 cells; RPMI 8226, 2.5 µM, 24 h",22.35±1.19 % of cells
same,Cell cycle distribution S,"RPMI 8226 cells; RPMI 8226, 2.5 µM, 24 h",21.59±1.77 % of cells
same,Cell cycle distribution Sub-G1,"RPMI 8226 cells; RPMI 8226, 2.5 µM, 24 h",15.53±2.23 % of cells
same,Cell cycle distribution G0/G1,"RPMI 8226 cells; RPMI 8226, 2.5 µM, 48 h",35.8±1.49 % of cells
same,Cell cycle distribution G2,"RPMI 8226 cells; RPMI 8226, 2.5 µM, 48 h",16.99±2 % of cells
same,Cell cycle distribution S,"RPMI 8226 cells; RPMI 8226, 2.5 µM, 48 h",26.22±0.97 % of cells
same,Cell cycle distribution Sub-G1,"RPMI 8226 cells; RPMI 8226, 2.5 µM, 48 h",21.49±0.94 % of cells
same,Cell cycle distribution G0/G1,"RPMI 8226 cells; RPMI 8226, 5 µM, 24 h",38.23±6.83 % of cells
same,Cell cycle distribution G2,"RPMI 8226 cells; RPMI 8226, 5 µM, 24 h",21.31±4.02 % of cells
same,Cell cycle distribution S,"RPMI 8226 cells; RPMI 8226, 5 µM, 24 h",18.68±2.58 % of cells
same,Cell cycle distribution Sub-G1,"RPMI 8226 cells; RPMI 8226, 5 µM, 24 h",21.32±6.2 % of cells
same,Cell cycle distribution G0/G1,"RPMI 8226 cells; RPMI 8226, 5 µM, 48 h",40.3±3.15 % of cells
same,Cell cycle distribution G2,"RPMI 8226 cells; RPMI 8226, 5 µM, 48 h",15.23±5.04 % of cells
same,Cell cycle distribution S,"RPMI 8226 cells; RPMI 8226, 5 µM, 48 h",19.12±2.51 % of cells
same,Cell cycle distribution Sub-G1,"RPMI 8226 cells; RPMI 8226, 5 µM, 48 h",25.53±7.59 % of cells
same,Cell cycle distribution G0/G1,"RPMI 8226 cells; RPMI 8226, 10 µM, 24 h",38.08±9.38 % of cells
same,Cell cycle distribution G2,"RPMI 8226 cells; RPMI 8226, 10 µM, 24 h",17.45±2.75 % of cells
same,Cell cycle distribution S,"RPMI 8226 cells; RPMI 8226, 10 µM, 24 h",21.4±3.5 % of cells
same,Cell cycle distribution Sub-G1,"RPMI 8226 cells; RPMI 8226, 10 µM, 24 h",23.53±7.04 % of cells
same,Cell cycle distribution G0/G1,"RPMI 8226 cells; RPMI 8226, 10 µM, 48 h",38.5±2.77 % of cells
same,Cell cycle distribution G2,"RPMI 8226 cells; RPMI 8226, 10 µM, 48 h",18.78±2.32 % of cells
same,Cell cycle distribution S,"RPMI 8226 cells; RPMI 8226, 10 µM, 48 h",18.61±4.5 % of cells
same,Cell cycle distribution Sub-G1,"RPMI 8226 cells; RPMI 8226, 10 µM, 48 h",28.01±5.09 % of cells
same,Cell cycle distribution G0/G1,"RPMI 8226 cells; RPMI 8226, 20 µM, 24 h",42.63±4.03 % of cells
same,Cell cycle distribution G2,"RPMI 8226 cells; RPMI 8226, 20 µM, 24 h",15.7±5.79 % of cells
same,Cell cycle distribution S,"RPMI 8226 cells; RPMI 8226, 20 µM, 24 h",19.83±2.92 % of cells
same,Cell cycle distribution Sub-G1,"RPMI 8226 cells; RPMI 8226, 20 µM, 24 h",24.09±2.62 % of cells
same,Cell cycle distribution G0/G1,"RPMI 8226 cells; RPMI 8226, 20 µM, 48 h",31.66±10.94 % of cells
same,Cell cycle distribution G2,"RPMI 8226 cells; RPMI 8226, 20 µM, 48 h",17.47±1.42 % of cells
same,Cell cycle distribution S,"RPMI 8226 cells; RPMI 8226, 20 µM, 48 h",20.74±2.14 % of cells
same,Cell cycle distribution Sub-G1,"RPMI 8226 cells; RPMI 8226, 20 µM, 48 h",29.68±10.49 % of cells
